PubChem BioAssay (NCI)
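Exposure lasted 48 hours, with cells grown in 96-well plates and compounds tested at five concentrations. GI50 is the concentration that inhibits growth by half. At the TGI there is no net growth.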

How the values were obtained:
Experiment in all cases: NCI-60 cell line screen, 48 h
CAKI-1 renal = system: CAKI-1 renal
MOLT-4 leukemia = system: MOLT-4 leukemia
NCI-H522 lung = system: NCI-H522 lung
OVCAR-4 ovarian = system: OVCAR-4 ovarian
M14 melanoma = system: M14 melanoma
IGROV1 ovarian = system: IGROV1 ovarian
MCF7 breast = system: MCF7 breast
T-47D breast = system: T-47D breast
NCI/ADR-RES ovarian = system: NCI/ADR-RES ovarian
UACC-257 melanoma = system: UACC-257 melanoma

Structure (SMILES) | GI50 (CAKI-1 renal) | TGI (CAKI-1 renal) | GI50 (MOLT-4 leukemia) | TGI (MOLT-4 leukemia) | GI50 (NCI-H522 lung) | TGI (NCI-H522 lung) | GI50 (OVCAR-4 ovarian) | TGI (OVCAR-4 ovarian) | TGI (M14 melanoma) | TGI (IGROV1 ovarian) | TGI (MCF7 breast) | TGI (T-47D breast) | TGI (NCI/ADR-RES ovarian) | TGI (UACC-257 melanoma) | GI50 (M14 melanoma) | GI50 (IGROV1 ovarian) | GI50 (MCF7 breast) | GI50 (T-47D breast) | GI50 (UACC-257 melanoma)
NCCCCCCNc1cc(-c2cccc(OC(F)(F)F)c2)nc2ccc(N3CCCC3)cc12 | 1.72 µM | 3.1 µM | 1.6 µM | 3.59 µM | 1.66 µM | 3.1 µM | 1.59 µM | 3.17 µM |  |  |  |  |  |  |  |  |  |  | 
CCCCCCCCCC[C@@H](O)[C@@H]1CC[C@@H]([C@@H]2CC[C@@H]([C@@H](O)CCCCCCCCCCC(O)CC3=CC(C)OC3=O)O2)O1 (stereo not given in full) |  |  |  | > 10 µM |  | > 10 µM |  | > 10 µM | > 10 µM | > 10 µM | > 10 µM | > 10 µM | > 10 µM | > 10 µM |  |  |  |  | 
O=C(O)C(Cc1cccs1)C(=O)O |  | > 100 µM |  |  |  | > 100 µM |  | > 100 µM | > 100 µM | > 100 µM | > 100 µM | > 100 µM | > 100 µM | > 100 µM |  |  |  |  | 
COc1ccc(-c2cn3ccnc3c(-c3ccc4ncn(C5CCCCC5)c4c3)n2)cc1 | 0.757 µM | > 100 µM | 2.66 µM | > 100 µM | 0.424 µM | 6.15 µM |  |  | > 100 µM | > 100 µM | > 100 µM | 4.5 µM |  | > 100 µM | 0.612 µM | 0.921 µM | 0.64 µM | 0.761 µM | > 100 µM
CC(NCCS(=O)(=O)O)C(=O)O (stereo not given) |  | > 100 µM |  | > 100 µM |  | > 100 µM |  | > 100 µM |  | > 100 µM | > 100 µM |  | > 100 µM | > 100 µM |  |  |  |  | 
